From patent US9493420B2, “Quinoline derivatives and uses thereof” (Portland State University, priority 2005, dated 2016)

Assays:
[1] = Heme binding by UV-VIS spectrophotometric titration (association constant); details: pH 5.7; heme assumed dimeric (μ-oxo)
From the text: Optionally, heme binding of RCQ compounds can be determined by any method known in the art, including, for example, spectrophotometric methods, like UV-VIS spectroscopy or NMR spectroscopy. Methods of measuring heme binding to a variety of molecules using the UV-VIS spectrum have been described (see, e.g., Xu et al., J. Inorg. Biochem., 86 (2-3):617-625, 2001; Xu et al., Antimicrob. Agents Chemother., 46(1):144-150, 2002). Generally, a heme-binding compound (such as a disclosed RCQ) is mixed in increasing concentration with heme (or a heme model compound, such as porphyrin or metalloporphyrin) and the absorbance spectrum is measured from the ultraviolet region well into the visible region (from about 300 nm to about 750 nm). This spectral range includes the so-called Soret and Q-band regions that arise from porphyrin or metalloporphyrin absorbance. Upon interaction between a heme-binding compound and heme (or a heme model compound, such as porphyrin or metalloporphyrin), decreased absorbance in the Soret region is observed. […]
In particular examples, the formation of heme-RCQ complexes can be determined by UV-VIS spectrophotometric titration, using a variety of commercially available spectrophotometers (such as a Varian-Cary 3E spectrophotometer). […] Optionally, pH can be monitored throughout the procedure to ensure that it remains unchanged. […]

[2] = system: mitogen-induced murine spleen lymphocytes; type: cell-based; details: mouse spleen lymphocytes
Protocol: Mouse spleen lymphocytes were isolated from C57B1/6J mice by teasing tissues on a metallic sieve screen. […] Two hundred (200) μl isolated cells were then seeded in separate wells of a 96-well flat-bottom tissue culture plate at a density of 2×10^5 cells per well. […] After 72 hours incubation in a humidified atmosphere at 37° C. and 5% CO2, a solution of resazurin PBS was added to a final concentration 10 μM, and the plates were returned to the incubator for another 24 hours. Resazurin is a substrate which changes color in response to metabolic activity (such as, living cells). […] LC50 values were determined from plots of florescence versus drug concentration using non-linear regression by Prism software.

heme2.RCQ_02 association constant [1]: approximately 7.5×10^5 M^−1
Compound: CN(CCCNc1ccnc2cc(Cl)ccc12)CCCN1c2ccccc2CCc2ccccc21 [RCQ_02, N′-(7-Chloro-quinolin-4-yl)-N-[3-(10,11-dihydro-dibenzo[b,f]azepin-5-yl)-propyl]-N-methyl-propane-1,3-diamine]
Cytotoxicity ([2]; LC50, 72 hours + 24 hours resazurin): 700 nM | cytotoxicity values ([2]; Table 14): 700 nM
